Measured values: PMC5897276, “External radiation exposure, excretion, and effective half-life in ^177Lu-PSMA-targeted therapies” (EJNMMI Research, 2018)
Where “and” joins values, the source holds several entries; their conditions need not be identical. Equal entries are not always repeated. Where two headings read alike, the source gives them in different places. Marks after values point to notes of the source that are not given here.

Columns and labels:
[1] = Whole-body dose rate measurement at a distance of 2 m and calculation of effective half-life; format: in vivo, patients
Protocol: The measurements and analyses were carried out with 50 patients from both departments as characterized in Table 1. All patients of Department 2 were released from the hospital 72 h p. i. for organizational reasons. Therefore, dose rate measurements were also available for ti = 72 h p. i.
In both departments, the dose rate monitor LB 123 D-H10 (Berthold Technologies, Bad Wildbad, Germany) was used, which is suitable for dose rate levels between 0.05 μSv/h and 10 mSv/h within an energy range from 30 keV to 1.3 MeV. The systems were officially calibrated, and regular quality checks were carried out. The patients were measured in the standing position from the anterior (DRA) and posterior (DRP) view at a distance of 2 m from the surface of the detector. The dose rate DR for different time points (see Table 1) was then calculated as the geometric mean of both measurements5 DRti=DRAti∙DRPti.
(§1) The data were fitted by a mono-exponential curve, and the effective half-life was calculated for the different time points: 24, 48, and 72 h (only from the data of Department 2). […] For all comparisons, the time point 48 h was chosen as the reference, because it is standard that the patients are released from the therapy ward after 48 h. Subsequently, Eq. 4 was used to determine the dose D to the public after the discharge of the patient for different time points of release (24, 48, and 72 h p. i.), substituting T1/2eff by T1/2ind (individual half-life of each patient), T1/2phys (physical half-life of ^177Lu), and T1/2max (maximum of the calculated effective half-life of the patient cohort) for different calculations. In addition, a correlation analysis (Spearman and Pearson) of the dose rate and administered activity was performed.

[2] = Estimation of dose to the public after discharge of the patient (Eq. 4); format: in vivo, patients
Text: The determination of the expected dose D to the public requires knowledge of the dose rate DR at the time point of the release of the patient and of the effective half-life T1/2eff. The dose D can then be calculated according to the following equation:4 D=DR∙T1/2eff/ln2.
This equation was originally recommended by the German Commission on Radiological Protection to conservatively estimate the dose to the public after iodine-131 therapy.
as §1

[3] = set-up: method as in PMID 27089552; conditions: group of 7 patients; cited from earlier work
[4] = set-up: method as in PMID 27089552; conditions: cited from earlier work; for Mean dose rate at 1 m: 23 patients, 7.5 GBq
[5] = time point 45.7 ± 2.1 h p. i. (48 h)
[6] = time point 67.7 ± 2.3 h p. i. (72 h), 25 patients (Department 2)
[7] = discharge 24 h p. i., T1/2ind (value from the 48-h measurement point)
[8] = discharge 72 h p. i., T1/2ind, 25 patients (Department 2)
[9] = discharge 72 h p. i., T1/2max, 25 patients (Department 2)
[10] = discharge 72 h p. i., T1/2phys, 25 patients (Department 2)

In the case of `O=C([O-])CN1CCN(CC(=O)[O-])CCN(CC(=O)NCC2CCC(C(=O)N[C@@H](Cc3ccc4ccccc4c3)C(=O)NCCCC[C@H](NC(=O)N[C@@H](CCC(=O)O)C(=O)O)C(=O)O)CC2)CCN(CC(=O)[O-])CC1.[177Lu+3]` (some centres unmarked) [^177Lu-PSMA-617], the “Dose rate (measured at a distance of 2 m), mean” value ([1]; time point 2 ± 0.3 h p. i.) is reported as 3.6 ± 0.7 μSv/h and 3.6 μSv/h, the “Dose rate (measured at a distance of 2 m), min” value (“Dose rate … min” for short) ([1]; time point 2 ± 0.3 h p. i.) is reported as 2.2 μSv/h and the “Dose rate (measured at a distance of 2 m), max” value (from here on “Dose rate … max”) ([1]; time point 3.9 ± 0.7 h p. i.) is reported as 3.8 μSv/h. For the same compound, the “Dose rate (measured at a distance of 2 m), mean” value ([1]; time point 3.9 ± 0.7 h p. i.) was 2.8 μSv/h, the “Dose rate … min” value ([1]; time point 3.9 ± 0.7 h p. i.) was 1.3 μSv/h and the “Dose rate (measured at a distance of 2 m), mean” value ([1]; time point 24.2 ± 0.7 h p. i.) was 1.6 ± 0.6 μSv/h and 1.6 μSv/h. For the same compound, the “Dose rate … min” value ([1]; time point 24.2 ± 0.7 h p. i.) was 0.5 μSv/h, the “Dose rate … max” value [1, 5] was 2.3 μSv/h and the “Dose rate (measured at a distance of 2 m), mean” value [1, 5] was 1.1 ± 0.5 μSv/h and 1.1 μSv/h. For the same compound, the “Dose rate … min” value [1, 5] was 0.4 μSv/h, the “Dose rate … max” value [1, 6] was 2.1^a μSv/h and the “Dose rate (measured at a distance of 2 m), mean” value [1, 6] was 0.7 ± 0.4 μSv/h and 0.7^a μSv/h. The “Dose rate … min” value [1, 6] was 0.1^a μSv/h, the “Estimated dose to the public after 1 cycle, mean” value (from here on “Estimated dose … mean”) [2, 7] was 100 μSv and 99 μSv and the “Estimated dose to the public after 1 cycle, min” value (“Estimated dose … min” below) [2, 7] was 25 μSv. The “Estimated dose to the public after 1 cycle, max” value (from here on “Estimated dose … max”) ([2]; discharge 24 h p. i., T1/2max) was 410 μSv, the “Estimated dose … mean” value ([2]; discharge 24 h p. i., T1/2max) was 208 μSv and the “Estimated dose … min” value ([2]; discharge 24 h p. i., T1/2max) was 75 μSv. The “Estimated dose … max” value ([2]; discharge 24 h p. i., T1/2phys) was 779 μSv, the “Estimated dose … mean” value ([2]; discharge 24 h p. i., T1/2phys) was 396 μSv and the “Estimated dose … min” value ([2]; discharge 24 h p. i., T1/2phys) was 142 μSv. For the same compound, the “Estimated dose … min” value ([2]; discharge 48 h p. i., T1/2ind) was 13 μSv, the “Estimated dose … max” value ([2]; discharge 48 h p. i., T1/2max) was 294 μSv and the “Estimated dose … mean” value ([2]; discharge 48 h p. i., T1/2max) was 139 μSv. For the same compound, the “Estimated dose … min” value ([2]; discharge 48 h p. i., T1/2max) was 49 μSv, the “Estimated dose … max” value ([2]; discharge 48 h p. i., T1/2phys) was 560 μSv and the “Estimated dose … mean” value ([2]; discharge 48 h p. i., T1/2phys) was 263 μSv. The “Estimated dose … min” value ([2]; discharge 48 h p. i., T1/2phys) was 93 μSv, the “Estimated dose … max” value [2, 8] was 204 μSv and the “Estimated dose … mean” value [2, 8] was 50 μSv. For the same compound, the “Estimated dose … min” value [2, 8] was 17 μSv, the “Estimated dose … max” value [2, 9] was 233 μSv and the “Estimated dose … mean” value [2, 9] was 105 μSv. For the same compound, the “Estimated dose … min” value [2, 9] was 49 μSv, the “Estimated dose … max” value [2, 10] was 443 μSv and the “Estimated dose … mean” value [2, 10] was 200 μSv. For the same compound, the “Estimated dose … min” value [2, 10] was 93 μSv, the “Expected dose to the public per cycle of therapy” value ([2]; human, in vivo) was “below 1 mSv” and the “Maximum dose to individual members of the public per treatment cycle” value ([2]; patient discharged after 72 h) was ~ 190 ± 36 μSv. The “Estimated dose to the public per cycle” value ([2]; physical half-life of lutetium-177 used for the calculation (conservative approach)) was “below 1 mSv”, the “Administered activity excreted within the first 6 h, mean” value [3] was 45% and the “Mean dose rate at 1 m” value ([4]; after 4 h) was 23 ± 6 μSv/h. For the same compound, the “Mean dose rate at 1 m” value ([4]; after 6 h) was 15 ± 4 μSv/h and the “Mean dose received by close family members” value ([4]; measured for 5 days post-injection with optically stimulated luminescence dosimeter, patients released 6 h p. i.) was 202 ± 43 μSv.
